These results are taken from patent publication US9545393B2, “Methods and compositions for treating pain” (The Board of Trustees of the Leland Stanford Junior …, priority 2012, dated 2017).

The structures appear in SMILES notation. “Also recorded” adds a separate entry of the source.

Data set [1] deals with rats subjected to prostaglandin E2 insult to the right hind paw. The data set can be described thus: Randall-Selitto paw pressure test, prostaglandin E2-induced hyperalgesia in rats. Format: in vivo, rat. As for the experimental part:
Rats. Male Wistar rats (170-190 g) were provided by Charles River Laboratories or Butantan Institute Animal Facility and housed in a temperature-controlled (22±1° C.) and light-controlled (12/12 h light/dark cycle) room. All rats were housed in their surrounding for at least 3 days. Groups of 5-6 rats were used.
Drugs Used. 0.1 ml saline (control), carrageenan (200 μg for rats, 100 μg for mice; Marine Colloids), or prostaglandin E2 (100 ng, Sigma) was administered by intraplantar injection into the right hind paw to induce hyperalgesia. […]
Nociception Assessment. […] Nociceptive response was assessed by the von Frey method for mice and the Randall-Selitto method for rats immediately before and 180 minutes after carrageenan or prostaglandin E2 injection. […]
Randall-Selitto method: Nociceptive threshold was determined using the Randall-Selitto paw pressure test (Ugo-Basile), as previously described (Gutierrez V P, et al., (2008) Crotalphine induces potent antinociception in neuropathic pain by acting at peripheral opioid receptors. European journal of pharmacology 594: 84-92). […]

The next data set concerns ALDH2 wild type mice. Nature of the data set: von Frey hair test, carrageenan-induced acute pain model, wild type mice. Type of data set: in vivo, mouse. The note with it: von Frey hair (1.20 gram in FIG. 1E), Alda-1 2 mg/kg s.c.
The test system of a further data set is ALDH2 *1/*2 mice. The data set can be described thus: Acetaldehyde vapor experiments with sub-threshold carrageenan, von Frey nociception. Type of data set: in vivo, mouse. The note with it: ALDH2 *1/*2 mice exposed to acetaldehyde vapor, with Alda-1. As for the experimental part: von Frey hair testing method: Hind paw nociception was assessed with six different von Frey hairs (0.03, 0.17, 0.41, 0.69, 1.20 and 1.48 g). Mice were placed individually in a plastic cage with a wire mesh bottom. After acclimation for at least 15 min, a von Frey hair was pressed perpendicularly against the plantar skin surface and held for approximately 5 seconds until hair slightly buckled. Using the same stimulation intensity […], each individual hair was applied six times to each hind paw at intervals of several seconds.
Since the response to each von Frey stimulus is fairly subjective, we used a method of objectifying these nociceptive responses by assigning a specific number to the response. Our scoring system consisted of: […], 1=withdraws paw from hair and 0=immediate flinching or hind paw licking. This method was previously shown by others to provide a reliable, objective assessment of pain response using von Frey hairs (Dale C S, et al., (2009) Analgesic properties of S100A9 C-terminal domain: a mechanism dependent on calcium channel inhibition. Fundamental & clinical pharmacology 23: 427-438; Takasaki I, et al., (2000) Allodynia and hyperalgesia induced by herpes simplex virus type-1 infection in mice. Pain 86: 95-101).
Acetaldehyde Experiments. […] A subset of these mice was exposed to acetaldehyde vapor with or without Alda-1. […]

The nature of data set [2]: Half-life of Alda-1 (preliminary studies). Format: in vivo. Particulars: estimated; reason for multiple doses. As for the experimental part:
Alda-1 dose (2 mg/kg/per injection, dissolved in 50% PEG/50% DMSO) was established in preliminary studies and given in multiple doses due to its estimated short half-life. Alda-1 was injected subcutaneously to the dorsal side of the neck 15 minutes before carrageenan or saline, and again at 30 and 150 minutes after carrageenan, prostaglandin E2 or saline injection. One subset of animals received Alda-1 only 30 and 150 minutes after carrageenan injection. Where indicated, naloxone (1 mg/kg per injection) or vehicle (saline) was given 10 minutes prior to each Alda-1 treatment to the dorsal side of the neck.

The next data set deals with T1, mutant ALDH2*2 (Homo sapiens, UniProt P05091, E504K).
T1 sequence (P05091 18-517 E504K): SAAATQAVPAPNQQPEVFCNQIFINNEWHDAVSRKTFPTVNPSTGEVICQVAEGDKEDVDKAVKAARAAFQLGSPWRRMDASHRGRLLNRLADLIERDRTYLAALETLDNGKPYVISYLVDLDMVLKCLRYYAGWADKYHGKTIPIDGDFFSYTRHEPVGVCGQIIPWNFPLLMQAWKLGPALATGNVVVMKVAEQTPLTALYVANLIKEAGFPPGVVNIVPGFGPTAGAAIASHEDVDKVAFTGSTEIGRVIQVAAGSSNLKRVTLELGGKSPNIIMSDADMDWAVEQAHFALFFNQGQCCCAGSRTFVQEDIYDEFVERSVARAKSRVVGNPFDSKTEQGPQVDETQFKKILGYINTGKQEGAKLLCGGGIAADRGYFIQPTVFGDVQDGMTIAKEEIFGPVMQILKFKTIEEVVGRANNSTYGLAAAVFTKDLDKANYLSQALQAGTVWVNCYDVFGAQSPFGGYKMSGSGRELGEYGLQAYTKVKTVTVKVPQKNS
The note with it: Perez-Miller et al, 2010; cited from earlier work.

As to `O=C(NCc1ccc2c(c1)OCO2)c1c(Cl)cccc1Cl` [Alda-1, N-(1,3-benzodioxol-5-ylmethyl)-2,6-dichlorobenzamide], in data set [1] (prostaglandin E2-induced model, Alda-1 2 mg/kg s.c. 15 min before and 30 and 150 min after insult, tested 3 hours after insult), the “Increase of nociceptive threshold” value stood at 2 fold. Further, the “Nociceptive threshold (FIG. 1B)” value in data set [1] (prostaglandin E2 insult, Alda-1 2 mg/kg s.c., 3 hours after insult, P<0.001) is reported as “significantly increased nociceptive threshold”. Besides, in the data set with ALDH2 wild type mice, the “Nociceptive threshold relative to vehicle-treated mice” value is “significantly increased pain threshold; also recorded: doubling the nociceptive threshold”. Further, the “Acetaldehyde-exacerbated hyperalgesia after carrageenan (50 μg)” value with ALDH2 *1/*2 mice is listed as “rescued; also recorded: reversed”. For the same compound, the Half-life entry in data set [2] is given as “short”. The “Effect on activity of mutant ALDH2*2” value at mutant ALDH2*2 is reported as “corrects ALDH2 inactivity”.
